Entries after “also recorded” stand apart in the source; their conditions may differ.
Assays:
[1] = system: Gardnerella vaginalis (ATCC 14018) biofilm; test: Biofilm biomass removal, crystal violet staining assay; assay type: cell-based; conditions: G. vaginalis
Method: (§1) Gardnerella vaginalis (ATCC® 14018™) and Candida albicans (ATCC® 90028™) were grown on microtiter plates for 48 h at 37° C.±2° C. before being rinsed with PBS to remove planktonic cells. Thereafter the biofilms of the two microorganisms were exposed to the bulk cream and its components (as well as clinical comparators Metronidazole gel and Monistat 7) for 24 h at 37° C.±2° C. The efficacy of formulations in removing biofilm biomass of G. vaginalis and C. albicans was assessed using a crystal violet staining assay and the efficacy of formulations to decrease biofilm viability of G. vaginalis and C. albicans was assessed by plate count method.

[2] = system: Candida albicans (ATCC 90028) biofilm; test: as above; assay type: cell-based; conditions: C. albicans
Method: as §1

[3] = system: Gardnerella vaginalis (ATCC 14018) biofilm; test: Biofilm viability, plate count method; assay type: cell-based; conditions: G. vaginalis
Method: as §1

[4] = system: Candida albicans (ATCC 90028) biofilm; test: Biofilm viability, plate count method; assay type: cell-based; conditions: C. albicans; 48 h biofilm exposed 24 h at 37° C.; mean ± SD
Method: as §1

[5] = system: Gardnerella vaginalis; conditions: cited from earlier work
[6] = system: Candida; conditions: cited from earlier work
[7] = system: Lactobacillus; conditions: used for treatment of bacterial vaginosis; cited from earlier work
[8] = system: microorganisms; conditions: 5 nM hydrogen peroxide (endogenous stress); cited from earlier work
[9] = system: biofilm; conditions: for one hour; cited from earlier work
[10] = Viscosity of polymer gel used as biofilm extracellular matrix proxi (degradation); conditions: 10 g formulation added to gel, viscosity up to 24 hours
Method: Three different gels were used in the study reported in Example 2 below: 2% natrosol gel, 2% alginate gel and 6% pectin gel. FeSO4 (10 mM) was added to the gels during manufacturing and acts as a catalysator and by mimic oxidation potential in biological fluids.
The alginate and Natrosol gel were manufactured by adding sodium Alginate/Natrosol to the water solution containing FeSO4, during stirring. The pectin gel was manufactured by heating the water to 80° C. and add pectin as well as FeSO4 during stirring. After manufacture, 6 glass vials (60 mL) were filled with 40 mL of the gel.
In general, biofilms consist of polymers consisting of polysaccharides, most commonly alginates, extracellular proteins, DNA and small amounts of surfactants and lipid. In this experiment, commercially available polymers were used as proxi (i.e. a measurement of one physical quantity (polymer) as an indicator of the value of another (biofilm)) to model the extracellular matrix of biofilm. […]
For each test, following method was used: First, viscosity of the pure gel was measured. […] Viscosity was measured immediately before addition of the formulation or composition, immediately after addition of the formulation or composition, 10 min, 1 hour and 24 hours addition of the formulation or composition. […]

[11] = 48 h biofilm exposed 24 h at 37° C.
[12] = 48 h biofilm exposed 24 h at 37° C., mean ± SD, n = 3

OO [0.3% H2O2 aq. sol., hydrogen peroxide]
Removal of biofilm biomass (in words) ([1]; 24 hours incubation, FIG. 3B, listed as 0.3% H2O2 solution): efficiently diminish the biofilm biomass; also recorded: efficiently remove biomass
Biofilm forming potential [1, 11]: Low/no
Biofilm biomass, optical density at 570 nm [1, 12]: 0.27 ± 0.002
Removal of biofilm biomass (in words) ([2]; 24 hours incubation, FIG. 3A): efficiently remove biomass
Biofilm forming potential [2, 11]: Medium
Biofilm biomass, optical density at 570 nm [2, 12]: 0.46 ± 0.11
Biofilm viability ([3]; 48 h biofilm exposed 24 h at 37° C., mean ± SD): 2.47 ± 0.119 Log10 CFU/mL
Decrease of biofilm viability (in words) ([3]; FIG. 4B): efficiently decrease the viability
Biofilm viability [4]: 2.90 ± 0.130 Log10 CFU/mL

CCCCCCCCCCCC(=O)OCC(O)CO (stereo not shown) [glycerol monolaurate]
Inhibitory effect [5]: inhibitory effect
Inhibitory effect [6]: inhibitory effect
Influence on Lactobacillus count [7]: does not influence Lactobacillus count

OO [hydrogen peroxide]
Effect on biofilm formation [8]: biofilm formation was promoted
Concentration needed as sole agent to reduce the amount of biofilm by 85% [9]: 0.5 % w/w

lactic acid [0.3% lactic acid solution with 0.7% NaOH]
Decrease in viscosity of polymer gel with time (polymer degradation) ([10]; Alginate gel, FIGS. 1B, 2B): viscosity decrease was observed over time
Decrease in viscosity of polymer gel with time (polymer degradation) ([10]; Natrosol gel, FIGS. 1A, 2A): viscosity decrease was observed over time
